In patent US20240165104A1, “TREATMENT OF DEPRESSION” (priority 2021, published 2024):
Structures can show the parent of a compound that is named as a salt. Where two headings read alike, the source gives them in different places.

Legend:
[1] = Pharmacokinetics after administration of the subject combination; conditions: for AUC0-12 of metabolite relative to that of bupropion / Cmax of metabolite relative to peak level of bupropion: after administration of the subject combination; for apparent elimination half-life (metabolites): in vivo; for accumulation ratio at steady state based on AUC0-12 / accumulation ratio at steady state based on Cmax: given as the subject combination
[2] = Solubility of the drug powder in water
[3] = Plasma drug concentration cutoffs for treatment adherence; conditions: human, in vivo
Experimental: (§1) In the patients of Example 1, plasma samples were collected after up to 6 weeks of treatment in the clinical trial (end of treatment visit) and analyzed.
(§2) The selected drug concentration cutoffs approximate the lowest observed concentrations 24 hours after the last dose of the study drug under 100% adherent conditions. The 15 ng/mL threshold at 24 hours after the last dose corresponds to a plasma concentration of about 19 ng/mL at about 12 hours after a dose that is administered after steady state has been achieved (e.g., day 42).

plasma protein = experiment: Plasma protein binding; assay type: in vitro ADME; conditions: metabolites of bupropion
Plasma protein binding = assay type: in vitro ADME; conditions: plasma
[4] = system: treatment-adherent patients with treatment-resistant depression; experiment: Analysis of treatment-adherent patients of the Phase 3 trial (Example 2); conditions: both, human, in vivo, 6 weeks
Experimental: It was discovered in this study that measurement of plasma drug concentrations is a direct method of assessing treatment adherence.
as §1, §2
Other efficacy assessments included Quick Inventory Depressive Symptoms-Self Report (QIDS-SR-16), Hamilton Anxiety Rating Scale, and Cognition and Physical Functioning Questionnaire (CPFQ).
Demographics and baseline characteristics were similar across both treatment groups.

[5] = system: patients with treatment resistant depression (TRD); experiment: Phase 3 randomized double-blind active controlled trial of DM/BU in treatment resistant depression (Example 1); assay type: in vivo, human
Description: Inclusion criteria for the open-label period included males or females 18-65 years of age, a history of inadequate response to 1 or 2 prior antidepressant treatments, established by the Antidepressant Treatment Response Questionnaire (ATRQ), and a Hamilton Depression Rating Scale (HAMD-17) total score of ≥18. Inclusion criteria for the double-blind period included inadequate response to 2 or 3 prior antidepressant treatments, including open-label period failure. Exclusion criteria included a history of electroconvulsive therapy, vagus nerve stimulation, transcranial magnetic stimulation or any experimental central nervous system treatment during the current episode or in the past 6 months, schizophrenia, bipolar disorder, obsessive compulsive disorder, psychiatric symptoms secondary to any other general medical condition.
The change in depressive symptoms over time was measured using the Montgomery-Åsberg Depression Rating Scale (MADRS) and the Quick Inventory of Depressive Symptomatology-Self-Rated (QIDS-SR-16). The primary endpoint was the change from baseline in the MADRS after 6 weeks of treatment. The key secondary endpoints were the change from baseline in the MADRS after 1 week of treatment, after 2 weeks of treatment, the average change over entire 6-week double-blind treatment period, and the Sheehan Disability Scale (SDS). Other pre-specified secondary efficacy variables included the Cognitive subscale of the Massachusetts General Hospital Cognitive and Physical Functioning Questionnaire (CPFQ), and the Hamilton Anxiety Scale (HAM-A).

[6] = subject combination administered with food

CC(NC(C)(C)C)C(O)c1cccc(Cl)c1 (centres unmarked) [erythrohydroxybupropion]
AUC0-12 of metabolite relative to that of bupropion [1]: about 1.2 times
Cmax of metabolite relative to peak level of bupropion [1]: approximately equal to
apparent elimination half-life (metabolites) ([1]; human): ~44 h

COc1ccc2c(c1)[C@]13CCCC[C@@H]1[C@H](C2)N(C)CC3 [dextromethorphan, morphinan, 3-methoxy-17-methyl-, (9α, 13α, 14α), hydrobromide monohydrate]
solubility in water [2]: sparingly soluble in water
increase of mean elimination half-life as compared to dextromethorphan given without bupropion ([1]; following 8 days of the subject combination, extensive metabolizers): approximately 3 fold
accumulation ratio at steady state based on AUC0-12 [1]: about 32
accumulation ratio at steady state based on Cmax [1]: about 20
change of Cmax with food [1, 6]: unchanged
decrease of AUC0-12 with food [1, 6]: 14%
concentration at 12 h ([3]; dose administered after steady state (e.g., day 42), read-out: corresponding plasma concentration at about 12 hours after a dose): ~19 ng/mL
concentration at 24 h ([3]; under 100% adherent conditions, read-out: plasma concentration cutoff approximating the lowest observed concentration 24 hours after the last dose): ~15 ng/mL

C[C@H](NC(C)(C)C)[C@@H](O)c1cccc(Cl)c1 [threohydroxybupropion]
extent of protein binding compared with bupropion (plasma protein): about half that seen with bupropion
AUC0-12 of metabolite relative to that of bupropion [1]: about 7 times
Cmax of metabolite relative to peak level of bupropion [1]: about 5 times
apparent elimination half-life (metabolites) ([1]; human): ~33 h

CC(NC(C)(C)C)C(=O)c1cccc(Cl)c1.Cl (racemic) [bupropion, (±)-1-(3-chlorophenyl)-2-[(1,1-dimethylethyl)amino]-1-propanone hydrochloride]
solubility in water [2]: highly soluble in water
fraction unbound (Plasma protein binding): 0.16
accumulation ratio at steady state based on AUC0-12 [1]: 1.5
accumulation ratio at steady state based on Cmax [1]: 1.1
Tmax ([1]; human, plasma, oral): ~2 h
increase of AUC0-12 with food [1, 6]: 6%
increase of Cmax with food [1, 6]: 3%
concentration at 24 h [3]: ~10 ng/mL
Blood pressure increased [4]: 0 (0.0%)
Dizziness [4]: 0 (0.0%)
Dry mouth [4]: 3 (2.3%)
Headache [4]: 6 (4.5%)
Nasopharyngitis [4]: 0 (0.0%)
Nausea [4]: 2 (1.5%)
Somnolence [4]: 2 (1.5%)
rate of discontinuation due to adverse events [4]: 0.8%
rate of remission from depression (QIDS-SR-16≤5) at Week 6 ([5]; % of patients, p=0.012): 8.2%
rate of discontinuation due to adverse events ([5]; both, human, in vivo, 6 weeks): 1.9%
MADRS mean reduction averaged over the entire 6-week treatment period ([5]; key secondary endpoint, DM/BU n=154, bupropion n=155, p=0.031): 6.7
MADRS mean reduction at Week 1 ([5]; key secondary endpoint, p=0.02): 3.6
MADRS mean reduction at Week 2 ([5]; key secondary endpoint, p=0.035): 6.1
QIDS-SR-16 mean reduction averaged over the entire 6-week treatment period ([5]; p=0.013): 2.3
MADRS mean reduction at Week 6 ([5]; primary endpoint, p=0.117, did not reach statistical significance): 9.4

C[C@H]1NC(C)(C)CO[C@]1(O)c1cccc(Cl)c1 [hydroxybupropion]
AUC0-12 of metabolite relative to that of bupropion [1]: about 19 times
Cmax of metabolite relative to peak level of bupropion [1]: approximately 14 times
apparent elimination half-life (metabolites) ([1]; human): approximately 35 hours
